Where a SMILES comes first, the peptide text is derived from it. The star is where a group is joined. Cbz = O=C(OCc1ccccc1)*
Legend:
NIH3T3 cells = test: Flow cytometry / immunoblot of NIH3T3 cells stably expressing YFP-LOV2 domain fusions, dark vs blue light; assay type: cell-based; details: 10 μM MG132, blue light 2 hours, FACS analysis
Description: Genes encoding the proteins tested as fusions to the BLID domain were cloned by standard techniques in the retroviral pBMN vector encoding an iHcRed-t or iBlasticidin. The ΦNX ecotropic packaging cell line was cultured in DMEM supplemented with 10% heat-inactivated fetal bovine serum, 2 mM glutamine, 100 U/mL penicillin and 100 μg/mL streptomycin. The NIH3T3 cell line was cultured in DMEM supplemented with 10% heat-inactivated donor bovine serum, 2 mM glutamine, 100 U/mL penicillin and 100 μg/mL streptomycin. The ΦNX cells were transfected using standard Lipofectamine 2000 protocols. Viral supernatants were harvested 48 h posttransfection and filtered through a 0.45 μm nylon syringe filter. NIH3T3 cells were incubated with the retroviral supernatants supplemented with 4 μg/mL polybrene for 4-6 h at 37° C. Cells were cultured in growth media for 24 to 36 h to allow for viral integration, then assayed as described.
Twenty-four hours prior to analysis, transduced NIH3T3 cells were plated at 1×10^5 cells per well of a 12-well plate and treated with vehicle or blue light for indicated time points prior to analysis. […] Samples were analyzed at the Stanford Shared FACS Facility with 10,000 events represented.
For immunoblotting, NIH3T3 cells were washed in PBS and lysed on ice in MIPP buffer containing protease inhibitors. Protein concentration was measured by Bradford assay. […]

3T3 cells = details: cited from earlier work

## CC(C)C[C@@H](C=O)NC(=O)[C@H](CC(C)C)NC(=O)[C@H](CC(C)C)NC(=O)OCc1ccccc1 [MG132] (Cbz-Leu-Leu-Leu-aldehyde)
NIH3T3 cells
  effect on light-dependent decrease in fluorescence of YFP-LOV24: prevents the light-dependent decrease in fluorescence

## RRRG
3T3 cells
  fluorescence of YFP with C-terminal degron: no fluorescence is observed

From patent US20140249295A1, “LIGHT-INDUCIBLE SYSTEM FOR REGULATING PROTEIN STABILITY” (The Board of Trustees Of The Leland Stanford Junior …, priority 2013, published 2014)
